Reference: ChEMBL document CHEMBL3638498, “Pharmaceutical compounds” (2014)

Target: T1, Serine/threonine-protein kinase Chk1 (Homo sapiens, UniProt O14757)
T1 sequence (O14757 whole entry): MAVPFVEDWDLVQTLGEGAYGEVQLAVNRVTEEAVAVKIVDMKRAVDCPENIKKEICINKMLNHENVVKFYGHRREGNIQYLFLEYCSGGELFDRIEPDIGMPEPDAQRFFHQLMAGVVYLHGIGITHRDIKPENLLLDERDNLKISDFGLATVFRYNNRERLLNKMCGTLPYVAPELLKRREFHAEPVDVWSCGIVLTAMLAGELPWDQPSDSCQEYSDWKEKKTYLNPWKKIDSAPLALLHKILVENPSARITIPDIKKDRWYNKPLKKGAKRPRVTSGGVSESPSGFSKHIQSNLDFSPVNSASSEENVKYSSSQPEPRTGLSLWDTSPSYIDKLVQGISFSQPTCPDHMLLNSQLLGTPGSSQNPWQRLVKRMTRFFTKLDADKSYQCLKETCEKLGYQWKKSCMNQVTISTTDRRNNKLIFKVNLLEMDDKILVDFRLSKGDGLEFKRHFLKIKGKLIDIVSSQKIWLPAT
Test: Inhibiting Assay: The compounds of the invention were tested for activity against Chk-1 kinase using the materials and protocols set out below. Reaction Buffer: Base Reaction buffer: 20 mM Hepes (pH 7.5), 10 mM MgCl2, 1 mM EGTA, 0.02% Brij35, 0.02 mg/ml BSA, 0.1 mM Na3VO4, 2 mM DTT, 1% DMSO. Required cofactors are added individually to each kinase reaction Reaction Procedure:(i) Prepare indicated substrate in freshly prepared Base Reaction Buffer(ii) Deliver any required cofactors to the substrate solution above(iii) Deliver indicated kinase into the substrate solution and gently mix(iv) Deliver compounds in DMSO into the kinase reaction mixture(v) Deliver 33P-ATP (specific activity 0.01 μCi/μl final) into the reaction mixture to initiate the reaction.(vi) Incubate kinase reaction for 120 minutes at room temperature(vii) Reactions are spotted onto P81 ion exchange paper (Whatman #3698-915)(viii) Wash filters extensively in 0.1% phosphoric acid.(ix) Measure counts in scintillation counter.
Assay type: organism-based

IC50: 19 nM
SMILES: N#Cc1cnc(NC(=O)Nc2ccc(CCNCc3ccc(F)cc3)c(Br)c2)cn1
